pIC50: −log10 of the molar value. Read-outs that look alike come from different tables or passages of the source. No end group written: not given here.

Consider three compounds from article PMC9318729 (Toxins, 2022).

The test system of series [1] is A549 cells. As to the kind of experiment: Effect of pathway inhibitors on Smp24-induced cytotoxicity (MTT and LDH release). Type of series: cell-based, human. Particulars: inhibitor pre-incubated 30 min (40 μM Necrostatin-1, 1 μM Cyclosporine A), then 5 μM Smp24 for 12 h. As for the experimental part: MTT assay was performed to analyze cellular viability as previously reported by us. […] […] After incubation, 10 µL MTT (5 mg/mL) was added before incubation for 4 h at 37 °C in the dark. Subsequently, the cell medium was discarded, and 200 µL DMSO was applied into each well before the absorbance value at 490 nm was determined via the microplate reader (Tecan Company, Männedorf, Switzerland). Cell proliferation was further detected by the BeyoClick™ EdU cell proliferation kit with Alexa Fluor 488 (Beyotime Institute of Biotechnology, Shanghai, China) according to the protocol of manufacturer. In brief, A549 cells (2 × 10^5 cells/well) were grown in 6-well plates and exposed to different concentrations of Smp24 (0, 1.25, 2.5 and 5 μM) for 24 h. Then, the cells were incubated with EdU for 2 h and stained with Alexa Fluor 488 for 30 min in the dark before cell fluorescence intensity was measured by flow cytometry (Becton Dickinson Company, Franklin Lakes, NJ, USA). The experiments had been performed in triplicate.
The LDH release assay was carried out with a commercial kit (Beyotime Institute of Biotechnology, Shanghai, China) following the manufacturer’s manual. […] Thereafter, a microplate reader (Tecan Company, Männedorf, Switzerland) was used to measure the absorbance value at 490 nm. […]
(In general: Release of lactate dehydrogenase indicates damage to the cell membrane.)

For series [2], the system named is A549 cells. As to the kind of experiment: MTT cell viability assay. Type of series: cell-based, human. Particulars: 24 h treatment. As for the experimental part:
(§1) MTT assay was performed to analyze cellular viability as previously reported by us. Briefly, A549, H3122, PC-9, H460 and MRC-5 cells (1 × 10^4 cells/well) were grown in 96-well plates and exposed to the different concentrations of Smp24 (1.25–20 μM) with 24 h. […] After incubation, 10 µL MTT (5 mg/mL) was added before incubation for 4 h at 37 °C in the dark. Subsequently, the cell medium was discarded, and 200 µL DMSO was applied into each well before the absorbance value at 490 nm was determined via the microplate reader (Tecan Company, Männedorf, Switzerland). Cell proliferation was further detected by the BeyoClick™ EdU cell proliferation kit with Alexa Fluor 488 (Beyotime Institute of Biotechnology, Shanghai, China) according to the protocol of manufacturer. In brief, A549 cells (2 × 10^5 cells/well) were grown in 6-well plates and exposed to different concentrations of Smp24 (0, 1.25, 2.5 and 5 μM) for 24 h. Then, the cells were incubated with EdU for 2 h and stained with Alexa Fluor 488 for 30 min in the dark before cell fluorescence intensity was measured by flow cytometry (Becton Dickinson Company, Franklin Lakes, NJ, USA). The experiments had been performed in triplicate.

For another series, the system named is H3122 cells. As to the kind of experiment: MTT cell viability assay. Type of series: cell-based, human. The following applies: 24 h treatment. Here is the method:
as §1
(Tetrazolium dyes change colour on reduction, which living cells bring about.)

The next series has as its system H460 cells. The series can be described thus: MTT cell viability assay. In kind it is cell-based, human. The following applies: 24 h treatment. As for the experimental part: as §1
For another series, the system named is PC-9 cells. The series can be described thus: MTT cell viability assay. Particulars: 24 h treatment. In kind it is cell-based, human. Here is the method: as §1
The next series has as its system MRC-5 cells. As to the kind of experiment: MTT cell viability assay, normal cells. Type of series: cell-based. The following applies: 24 h treatment, mean ± SEM (n = 3), read-out: IC50 against MRC-5 normal cells. Here is the method: as §1
The test system of another series is A549 xenograft. As to the kind of experiment: A549 xenograft mice model, in vivo antitumor experiment. Also noted: species or system BALB/c nude mice. The following applies: 2 mg/kg every three days for 18 days, n = 5. Here is the method:
A total of 10 BALB/c nude mice of both sexes (18–20 g, 6 weeks) were acquired from the Laboratory Animal Center of Southern Medical University and were raised in a specific pathogen-free mini-barrier system of the central animal facility of Southern Medical University under controlled conditions (60% humidity, 21 ± 2 °C room temperature, and 12 h light-dark cycle). The experimental protocols (ethical approval number: L2019226 on 11 November 2019) involving animals were approved by the Animal Ethics Committee of Southern Medical University and were implemented in the light of the international regulations for animal research. The animals were placed in an induction chamber, and anesthesia was induced with 5% isoflurane before sacrificed by cervical dislocation.
First, 5 × 10^6 A549 cells with viability over 90% were inoculated subcutaneously into the right flank per mouse. Tumor growth was examined daily by palpation and the diameter was measured with calipers in two planes. Tumor volumes were counted with the following formula: volume (mm^3) = (smallest diameter)^2 × (largest diameter)/2. Then, the mice were randomized into two groups (n = 5 mice/group) for physiological saline and Smp24 treatment. […] The body weight of mice and tumor volumes were recorded daily. […]

Another series is described as follows: Acute toxicity analysis. In kind it is in vivo, mice. Particulars: 5 and 10 mg/kg intraperitoneal, 3 animals per group. Here is the method: To detect the acute toxicity of Smp24 in vivo, the mice were weighed and randomly divided into three groups with 3 animals each, and Smp24 (5 mg/kg and 10 mg/kg) and saline were intraperitoneally administered into mice of different groups. At 48 h after injection, serum and organ tissues from mice were collected for blood biochemical detection and organ weight measurement, respectively.

For another series, the system named is NSCLC tumor. Particulars: subcutaneous injection, cited from earlier work. As for the experimental part: For most peptides, despite the cogent evidence about their antitumor effects in vitro, their clinical applications have met with major obstacles owing to several issues, including their non-specific cellular cytotoxicity and rapid degradation in the blood. In order to further verify the antitumor effects of Smp24 in vivo, a tumor-burdened experiment was carried out. […] Furthermore, it ...

For `CN1C(=O)C(Cc2c[nH]c3ccccc23)NC1=S` (stereo not shown) [Necrostatin-1], in the series with A549 cells [1], the “Inhibition of Smp24-induced cytotoxicity and necrosis of A549” value is “can inhibit”.

For the compound IWSFLIKAATKLLPSLFGGGKKDS [Smp24], in the series with A549 cells [2] (normal cells MRC-5), the “Selectivity index, A549” value is 3.61. For the same compound, the pIC50 (as a rule, the negative decadic logarithm of the IC50, by convention in mol/L) is approximately 5.39 in the series on A549 cells [2] (MTT, mean ± SEM (n = 3), read-out: IC50 against A549 cells); approximately 5.33 with H3122 cells (MTT, mean ± SEM (n = 3), read-out: IC50 against H3122 cells); approximately 5.15 with H460 cells (MTT, mean ± SEM (n = 3), read-out: IC50 against H460 cells); approximately 5.20 with PC-9 cells (MTT, mean ± SEM (n = 3), read-out: IC50 against PC-9 cells); approximately 4.83 with MRC-5 cells. For the same compound, the “Selectivity index, H3122” value in the series on H3122 cells (normal cells MRC-5) was 3.16. The “Selectivity index, H460” value with H460 cells (normal cells MRC-5) came out at 2.07. For the same compound, the “Selectivity index, PC-9” value in the series on PC-9 cells (normal cells MRC-5) turned out to be 2.32. In addition, the “Weight changes of body and organs (heart, lung, liver, spleen, kidney)” value with A549 xenograft is “did not affect”. Moreover, the “Animal death after the first day's injection” value in “Acute toxicity analysis” was “no animal death”. Further, in “Acute toxicity analysis” (48 h after injection), the “Heart, lung, liver, spleen and kidney weights” value is “did not change significantly”. Moreover, the “Plasma AST, ALT, BUN and Cre” value in “Acute toxicity analysis” (48 h after injection) is “did not change significantly”.

Turning to melittin, the “Suppression of NSCLC tumor growth” value in the series with NSCLC tumor (0.5 mg/kg) is 27%; in the series on NSCLC tumor (10 mg/kg), 61%.
